The nature of data set [1]: Pharmacokinetics study of PTI 93 in mice (plasma levels). Particulars: single i.p. dose of 100 mg/kg PTI 93, mice.
The test system of data set [2] is Salmonella Typhimurium (TA98 and TA100). The data set is described as follows: Genotoxicity, reverse mutations in Salmonella with and without rat liver S9. The note with it: strains TA98 and TA100, presence and absence of rat liver S9.
Data set [3] relates to A549 human non-small cell lung cancer cells. The data set is described as follows: Subcutaneous A549 xenograft in NOD SCID mice (efficacy of PTI 93). Format: in vivo, mouse. The note with it: end of study, factoring in the 0 time value. As for the experimental part: A549 human non-small cell lung cancer cells (1.5×10^5) were injected subcutaneously in the left and right flanks of 5-6-week-old female NOD SCID mice (Taconic Farms, Germantown, N.Y.). When the average tumor volume reached 100 mm^3, mice were treated by oral gavage of 10 or 15 mg/kg/day PTI 93 or vehicle (corn oil) for 2 weeks, when they were sacrificed and the tumors were harvested.

In the next data set the test system is heart tissue. The data set is described as follows: Cardiotoxicity, histology of heart tissue sections from treated mice. Particulars: mice treated for about 1.5 months.
The test system of another data set is U87 glioblastoma cells. The data set is described as follows: Apoptosis, Annexin V-FITC/PI staining by FACS. In kind it is cell-based, human.
On the set-up of data set [4]: AUC in plasma: unit not given beside the values. Particulars: mouse, in vivo, inhaled or intranasal.
Another data set deals with U87 cells. In words: Inhibition of glioblastoma cell line U87, 24-h growth inhibitory concentration. The note with it: 24-hour growth inhibition. In kind it is cell-based, human.
Another data set is described as follows: in vivo. Particulars: mouse, ip, 58 mg/kg.
The test system of data set [5] is A549 human non-small lung cancer cells. In words: Orthotopic A549-GFP lung tumor model in Ncr nude mice (efficacy of phospho-ibuprofen amide 1). Format: in vivo. The note with it: 200 mg/kg once a week for 8 weeks; compound 1 liposomal; versus control.
Data set [6] in a line: Biodistribution of liposomal phospho-ibuprofen amide 1 in mice after i.v. administration. Format: in vivo. The note with it: single 200 mg/kg i.v. dose, 1 h.

Read-outs that look alike come from different tables or passages of the source. Where only a bound is given, the exact number is not on record here.

On to `CCOP(=O)(OCC)OCCc1ccc(OC(=O)Cc2c(C)n(C(=O)c3ccc(Cl)cc3)c3ccc(OC)cc23)cc1` [PTI 93, [1-(4-Chloro-benzoyl)-5-methoxy-2-methyl-1H-indol-3-yl]-acetic acid 4-[2-(diethoxy-phosphoryloxy)-ethyl]-phenyl ester], for which, in [1], the “time of maximum plasma concentration of intact PTI” value is 2 h. Moreover, the “plasma level of intact PTI 4 hours post administration” value in data set [1] (4 hours) is “undetectable”. The “genotoxicity (reverse mutations)” value in data set [2] is listed as “no genotoxicity”. Also, the entries for the “reduction of tumor volume” value in data set [3] (10 mg/kg/day oral gavage for 2 weeks) and in [3] (15 mg/kg/day oral gavage for 2 weeks) were 85% and 96%, respectively. Also, the “cardiotoxicity (histology, treated versus healthy control mice)” value with heart tissue is given as “no differences”.
In the case of `CCCC(CCC)C(=O)Oc1ccc(COP(=O)(OCC)OCC)cc1` [PV 116, Phosphovalproic Acid], the “fold-increase of annexinV (+) cells” value in the data set with U87 glioblastoma cells came to 3.0 fold.
In the case of `CSc1ccc(/C=C2/C(C)=C(CC(=O)O)c3cc(F)ccc32)cc1` [Sulindac sulfide 131, sulindac sulfide], the AUC in plasma in [4] (BALB/c nude) was determined as 66.9. Also, the AUC in lung in data set [4] stood at 18.9 nmol·h/g.
Take `CC1=C(CC(=O)O)c2cc(F)ccc2/C1=C\c1ccc(S(C)(=O)=O)cc1` [Sulindac sulfone 132, sulindac sulfone]: in [4] (BALB/c nude), the AUC in plasma worked out at 142.4, the Cmax came out at 10.4 µM, the Tmax in lung was determined as 8 h and the Tmax in plasma turned out to be 8 h. In data set [4], this molecule registered an AUC in lung of 57.5 nmol·h/g and a Cmax in lung of 4.6 nmol/g.
Turning to `CC1=C(CC(=O)O)c2cc(F)ccc2/C1=C\c1ccc([S+](C)[O-])cc1` (stereo not shown) [Sulindac, sulindac], in data set [4], the AUC in lung is 30.1 nmol·h/g, the AUC in plasma turned out to be 49.5, the Tmax in lung is recorded as 0 h and the Tmax in plasma amounted to 0 h. This molecule also gave an IC50 in the data set with U87 cells not below 1000 µM.
Turning to `COc1ccc2c(c1)c(CC(=O)O)c(C)n2C(=O)c1ccc(Cl)cc1` [indomethacin 127, indomethacin], in the data set “in vivo”, the AUC(0-t) came to 500 µM·h and the peak concentration (Cmax) turned out to be 127 µM.
As for `CCOP(=O)(OCC)OCCCCNC(=O)C(C)c1ccc(CC(C)C)cc1` (stereo not shown) [phospho-ibuprofen amide 1, Phosphoric acid diethyl ester 4-[2-(4-isobutyl-phenyl)-propionylamino]-butyl ester], in data set [5], the “reduction based on lung tumor weight (lung weight)” value is recorded as 80% and the “reduction of lung cancer based on fluorescence” value came out at 95%. In addition, the “biodistribution (drug concentration in blood and major organs)” value in [6] is “preferentially accumulated in lungs”.

The values above are taken from US20140178461A1, “COMPOUNDS AND COMPOSITIONS FOR USE IN THE TREATMENT AND PREVENTION OF LUNG AND BRAIN CANCER AND PRECANCEROUS CONDITIONS THEREOF” (priority 2012, published 2014).
